Test results as given in PubChem BioAssay AID256 (DTP/NCI, 2004).
Toxic doses and inconclusive results are not listed. The calls were made as follows: active = survival T/C of 150% or more; inactive = T/C below 125% in these data.

Tested on: CD2F1 mice, L1210 leukemia ip, survival T/C
Experiment: NCI In Vivo Anticancer Drug Screen. Data for tumor model L1210 Leukemia (intraperitoneal) in CD2F1 (CDF1) mice
Conditions: endpoint: mean survival time, higher = longer survival
Summary of the method: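 Mice carrying a transplanted tumor received test compound or vehicle alone. The value is the measurement in the treated group divided by that in the vehicle-treated control group.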

[1] = dose: 12.5 mg/kg/injection, schedule: Q01DX009 (ip), vehicle: saline with Tween-80
[2] = dose: 12.5 mg/kg/injection, schedule: Q04DX003 (ip), vehicle: saline with Tween-80
[3] = dose: 25.0 mg/kg/injection, schedule: Q04DX003 (ip), vehicle: saline with Tween-80
[4] = dose: 100.0 mg/kg/injection, schedule: Q01DX009 (ip), vehicle: saline with Tween-80
[5] = dose: 400.0 mg/kg/injection, schedule: Q01DX009 (ip), vehicle: saline with Tween-80
[6] = dose: 100.0 mg/kg/injection, schedule: Q01DX001 (ip), vehicle: saline
[7] = dose: 200.0 mg/kg/injection, schedule: Q01DX001 (ip), vehicle: saline

Measured: T/C

COC1(OC)C(Cl)=C(Cl)C(Cl)=C1Cl
inactive: dose: 6.25 mg/kg/injection, schedule: Q01DX009 (ip), vehicle: saline with Tween-80 96 % of control | [1] 98 % of control | [2] 111 % of control | dose: 25.0 mg/kg/injection, schedule: Q01DX009 (ip), vehicle: saline with Tween-80 96 % of control | [3] 111 % of control

CC12CCC(=O)C=C1CC(CC(=O)O)CC2 (stereo not given)
inactive: dose: 100.0 mg/kg/injection, schedule: Q04DX002 (ip), vehicle: saline with Tween-80 100 % of control | dose: 200.0 mg/kg/injection, schedule: Q04DX002 (ip), vehicle: saline with Tween-80 108 % of control | dose: 400.0 mg/kg/injection, schedule: Q04DX002 (ip), vehicle: saline with Tween-80 104 % of control

CCN(CC)C(=S)SC
inactive: dose: 75.0 mg/kg/injection, schedule: Q01DX001 (ip), vehicle: saline 104 % of control | dose: 150.0 mg/kg/injection, schedule: Q01DX001 (ip), vehicle: saline 106 % of control

CC(Br)C1(c2ccccc2)OCCO1 (stereo not given)
inactive: dose: 100.0 mg/kg/injection, schedule: Q01DX001 (ip), vehicle: saline with Tween-80 100 % of control | [4] 114 % of control | dose: 100.0 mg/kg/injection, schedule: Q04DX003 (ip), vehicle: saline with Tween-80 104 % of control | dose: 200.0 mg/kg/injection, schedule: Q01DX001 (ip), vehicle: saline with Tween-80 94 % of control | dose: 200.0 mg/kg/injection, schedule: Q04DX003 (ip), vehicle: saline with Tween-80 111 % of control | dose: 400.0 mg/kg/injection, schedule: Q01DX001 (ip), vehicle: saline with Tween-80 102 % of control | dose: 400.0 mg/kg/injection, schedule: Q04DX003 (ip), vehicle: saline with Tween-80 101 % of control

C[CH2][Sn]1([CH2]C)[O]C2C(CO)OC(n3ccc(N)nc3=O)C2[O]1 (stereo not given)
inactive: dose: 1.56 mg/kg/injection, schedule: Q01DX005 (ip), vehicle: water 97 % of control | dose: 3.13 mg/kg/injection, schedule: Q01DX005 (ip), vehicle: water 111 % of control | dose: 6.25 mg/kg/injection, schedule: Q01DX005 (ip), vehicle: water 100 % of control | dose: 12.5 mg/kg/injection, schedule: Q01DX005 (ip), vehicle: other 103 % of control | dose: 12.5 mg/kg/injection, schedule: Q01DX005 (ip), vehicle: water 105 % of control

Cc1ccc(S(=O)(=O)OCC(C)C)cc1
inactive: [4] 101 % of control | dose: 200.0 mg/kg/injection, schedule: Q01DX009 (ip), vehicle: saline with Tween-80 101 % of control | [5] 98 % of control

CS(=O)(=O)OCCN(CCOS(C)(=O)=O)c1ccc(C=Nc2ccc(C(=O)O)c(O)c2)cc1
inactive: dose: 0.5 mg/kg/injection, schedule: Q01DX009 (ip), vehicle: saline 104 % of control | dose: 1.0 mg/kg/injection, schedule: Q01DX009 (ip), vehicle: saline 101 % of control | dose: 2.0 mg/kg/injection, schedule: Q01DX009 (ip), vehicle: saline 107 % of control | dose: 4.0 mg/kg/injection, schedule: Q01DX009 (ip), vehicle: saline 104 % of control

CC1=CCCC(C)C2CC(C(C)(C)O)CC12 (stereo not given)
inactive: [6] 93 % of control | [7] 91 % of control | dose: 400.0 mg/kg/injection, schedule: Q01DX001 (ip), vehicle: saline 95 % of control

COC1(OC)C2(Cl)CCC1(Cl)CC2
inactive: dose: 50.0 mg/kg/injection, schedule: Q01DX001 (ip), vehicle: saline 103 % of control | [6] 113 % of control | [7] 102 % of control

CCOC(CNC(C)c1ccc2cc(OC)c(OC)cc2c1)OCC (stereo not given)
inactive: dose: 12.5 mg/kg/injection, schedule: Q01DX009 (ip), vehicle: Klucel (hydroxypropylcellulose) (HPC) 97 % of control | dose: 25.0 mg/kg/injection, schedule: Q01DX009 (ip), vehicle: Klucel (hydroxypropylcellulose) (HPC) 92 % of control | dose: 50.0 mg/kg/injection, schedule: Q01DX009 (ip), vehicle: Klucel (hydroxypropylcellulose) (HPC) 89 % of control | dose: 100.0 mg/kg/injection, schedule: Q01DX009 (ip), vehicle: Klucel (hydroxypropylcellulose) (HPC) 95 % of control | dose: 200.0 mg/kg/injection, schedule: Q01DX009 (ip), vehicle: Klucel (hydroxypropylcellulose) (HPC) 100 % of control | dose: 400.0 mg/kg/injection, schedule: Q01DX009 (ip), vehicle: Klucel (hydroxypropylcellulose) (HPC) 90 % of control

COc1cc(OC)c(NC(=O)Oc2ccc(NC(C)=O)cc2)cc1Cl
inactive: dose: 50.0 mg/kg/injection, schedule: Q01DX009 (ip), vehicle: saline with Tween-80 88 % of control | [4] 96 % of control

COC1=C(C)C(=O)c2c(c(COC(N)=O)c3n2CCC3OC(N)=O)C1=O (stereo not given)
inactive: dose: 1.25 mg/kg/injection, schedule: Q01DX001 (ip), vehicle: distilled water + Tween-80 108 % of control | dose: 1.5 mg/kg/injection, schedule: Q01DX001 (ip), vehicle: distilled water + Tween-80 114 % of control | dose: 2.5 mg/kg/injection, schedule: Q01DX001 (ip), vehicle: distilled water + Tween-80 120 % of control | dose: 3.0 mg/kg/injection, schedule: Q01DX001 (ip), vehicle: distilled water + Tween-80 118 % of control | dose: 5.0 mg/kg/injection, schedule: Q01DX001 (ip), vehicle: distilled water + Tween-80 117 % of control | dose: 6.0 mg/kg/injection, schedule: Q01DX001 (ip), vehicle: distilled water + Tween-80 116 % of control | dose: 10.0 mg/kg/injection, schedule: Q01DX001 (ip), vehicle: distilled water + Tween-80 115 % of control | dose: 12.0 mg/kg/injection, schedule: Q01DX001 (ip), vehicle: distilled water + Tween-80 122 % of control

C/C=C1/OC(n2cnc3c(N)ncnc32)C(O)C1O (stereo not given)
inactive: dose: 10.0 mg/kg/injection, schedule: Q01DX005 (ip), vehicle: distilled water + Tween-80 103 % of control | dose: 20.0 mg/kg/injection, schedule: Q01DX005 (ip), vehicle: distilled water + Tween-80 107 % of control | dose: 40.0 mg/kg/injection, schedule: Q01DX005 (ip), vehicle: distilled water + Tween-80 95 % of control | dose: 80.0 mg/kg/injection, schedule: Q01DX005 (ip), vehicle: distilled water + Tween-80 100 % of control | dose: 160.0 mg/kg/injection, schedule: Q01DX005 (ip), vehicle: distilled water + Tween-80 97 % of control

O=NN(CCCl)C(=O)Nc1cc2c3ccccc3ccc2c2ccccc12
inactive: dose: 177.0 mg/kg/injection, schedule: Q01DX009 (ip), vehicle: saline with Tween-80 102 % of control | dose: 265.0 mg/kg/injection, schedule: Q01DX009 (ip), vehicle: saline with Tween-80 98 % of control | [5] 102 % of control | dose: 600.0 mg/kg/injection, schedule: Q01DX009 (ip), vehicle: saline with Tween-80 89 % of control

CC(C)(CCC#N)/C(=N\Nc1ccc([N+](=O)[O-])cc1[N+](=O)[O-])c1ccccc1
inactive: dose: 75.0 mg/kg/injection, schedule: Q04DX002 (ip), vehicle: saline with Tween-80 90 % of control | dose: 150.0 mg/kg/injection, schedule: Q04DX002 (ip), vehicle: saline with Tween-80 102 % of control | dose: 300.0 mg/kg/injection, schedule: Q04DX002 (ip), vehicle: saline with Tween-80 94 % of control

CCCCCCCCCCCCCCCC(=O)N(CCCN(C)C)C1CCC(N(CCCN(C)C)C(=O)CCCCCCCCCCCCCCC)CC1 (stereo not given)
inactive: [1] 101 % of control | [2] 93 % of control | [3] 111 % of control | dose: 50.0 mg/kg/injection, schedule: Q04DX003 (ip), vehicle: saline with Tween-80 102 % of control

C[S+](C)CC(=O)c1ccccc1
inactive: dose: 50.0 mg/kg/injection, schedule: Q01DX009 (ip), vehicle: saline 97 % of control | dose: 100.0 mg/kg/injection, schedule: Q01DX009 (ip), vehicle: saline 106 % of control | dose: 200.0 mg/kg/injection, schedule: Q01DX009 (ip), vehicle: saline 107 % of control
